Results reported in PMC10376326, “Novel Acylselenourea Derivatives: Dual Molecules with Anticancer and Radical Scavenging Activity” (Antioxidants, 2023).

What was measured:
[1] = DPPH radical scavenging assay; assay type: biochemical
Summary of the method: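 Acylselenoureas at 0.003 and 0.03 mg/mL (final dilutions from DMSO stock, via methanol) mixed with DPPH• prepared at 0.04 mg/mL in methanol. Absorbance decrease at 517 nm followed 0–120 min; % scavenging calculated relative to negative control, triplicates.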

[2] = tested on: HT-29 (colon) cancer cell line; test: MTT cell viability assay, HT-29; assay type: cell-based; conditions: Homo sapiens, HT-29, 48 h, read-out: Cell growth %; for activity at 10 µM: HT-29, 10 µM; for activity at 50 µM: HT-29, 50 µM
Summary of the method: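 MDA-MB-231, HTB-54 and DU-145 grown in RPMI 1640, HT-29 in McCoy's 5A (10% FBS). Output is % cell growth; IC50 determined; ≥3 experiments in quadruplicate.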

DU-145 cells = test: Total ROS measurement (Muse Oxidative Stress Kit); assay type: cell-based, human; conditions: DU-145, 16 h; 1.I and 5.I 10 µM, H2O2 0.9 µM
Experimental: Total ROS levels were measured in DU-145 cells treated with 1.I and 5.I using the Muse Oxidative Stress Kit (EMD Millipore, Billerica, MA, USA) according to the manufacturer’s protocol. This kit uses Muse oxidative stress reagent to detect ROS inside cells. This kit identifies two different cell populations: ROS(−) cells and ROS(+) cells. In the graph, the ROS(−) population is represented by the M1 peak and the ROS(+) cells by the M2 peak. DU-145 cells treated with H2O2 (0.9 µM) were used as positive controls to identify M1 and M2 peaks. Percentages of ROS(−) and ROS(+) cells were measured using the Muse Cell Analyzer.

| Compound | inhibition ([1]; 0.003 mg/mL, 0 min) | inhibition ([1]; 0.003 mg/mL, 5 min) | inhibition ([1]; 0.003 mg/mL, 15 min) | inhibition ([1]; 0.003 mg/mL, 30 min) | inhibition ([1]; 0.003 mg/mL, 60 min) | inhibition ([1]; 0.003 mg/mL, 90 min) | inhibition ([1]; 0.003 mg/mL, 120 min) | time to reach the highest DPPH inhibition ([1]; 0.03 mg/mL) | inhibition ([1]; 0.03 mg/mL, 0 min) | inhibition ([1]; 0.03 mg/mL, 5 min) | inhibition ([1]; 0.03 mg/mL, 15 min) | inhibition ([1]; 0.03 mg/mL, 30 min) | inhibition ([1]; 0.03 mg/mL, 60 min) | inhibition ([1]; 0.03 mg/mL, 90 min) | inhibition ([1]; 0.03 mg/mL, 120 min) | activity at 10 µM [2] | activity at 50 µM [2] | ROS PROFILE M2 (ROS(+) cells) (DU-145 cells) |
| --- | --- | --- | --- | --- | --- | --- | --- | --- | --- | --- | --- | --- | --- | --- | --- | --- | --- | --- |
| CCCNC(=[Se])NC(=O)c1ccco1 [Compound 1.I, N-(propylcarbamoselenoyl)furan-2-carboxamide] | 0% | 1.1 ± 2% | 3.5 ± 2% | 6.6 ± 2% | 11.7 ± 2.3% | 15.5 ± 2.5% | 17.5 ± 2.3% | 60 min | 1.8 ± 1.5% | 10.3 ± 4.3% | 29.7 ± 4.1% | 55.4 ± 5.1% | 95.4 ± 4.1% | 96.5 ± 0.7% | 96.4 ± 0.6% | 44.2 ± 7.1% | 25.5 ± 4.2% | – |
| CCCNC(=[Se])NC(=O)c1ccccc1 [Compound 5.I, N-(propylcarbamoselenoyl)benzamide] | 1.7 ± 1.1% | 2.9 ± 1.1% | 4.6 ± 1.2% | 6.4 ± 1.3% | 9.3 ± 1.4% | 11.4 ± 1.5% | 13 ± 1.6% | – | 3.2 ± 2.4% | 16.6 ± 3.1% | 29.8 ± 3.4% | 46.1 ± 3.9% | 72.6 ± 6.2% | 97.7 ± 0.6% | 96.7 ± 2.5% | 39.6 ± 14.3% | 21.4 ± 1.5% | ~13% |
